From article PMC12442245, “Activity Analysis of the P2X Receptor Antagonist PPADS against Signal Transducer and Activator of Transcription Proteins” (Chembiochem, 2025)

How the values were obtained:
STAT3 = STAT3 (Homo sapiens, UniProt P40763); assay: Competitive fluorescence polarization (FP) assay, STAT3; assay type: binding; conditions: no reducing agent, 1 h
Excerpt: Screening of chemical libraries
Screening of chemical libraries comprising approximately 5000 known bioactive compounds in fluorescence polarization-based assays against phosphorylation-dependent protein-protein interaction domains, including STAT proteins, has been described.[1] PPADS was purchased from Sigma-Aldrich, and iso-PPADS from Bio-Techne.
(§1) Fluorescence polarization assays
(§2) Competitive fluorescence polarization (FP) assays for STAT1,[2] STAT3,[3] STAT4,[4] STAT5a,[5] STAT5b[6] and STAT6[1] were performed as previously described. Briefly, peptide binding to proteins was analyzed using the following carboxyfluorescein (CF) -labelled pepti des at a concentration of 10 nM: STAT1: 5-CF-GpYDKPHVL-OH, STAT3: 5-CF-GpYLPQTV -NH2, STAT4: 5-CF-GpYLPQNID-OH, STAT5a and STAT5b: 5-CF-GpYLVLDKW-OH, STAT6: 5- […]
CFGp[…]-OH. Proteins were used at a final concentration representing the approximate Kd value for binding of the corresponding peptide to the protein, namely 65 nM for STAT1, 65 nM for STAT3, 35 nM for STAT4, 125 nM for STAT5a, 65 nM for STAT5b and 75 nM for STAT6. […] FP was measured using an Infinite F500 plate reader (Tecan) and measurements were converted into percent inhibition according to the binding curve equation. Curves were plotted and best fits calculated using OriginPro […]

STAT5a = target: T1, STAT5a (Homo sapiens, UniProt P42229); assay: HTRF assay, STAT5a; assay type: binding; conditions: STAT5a 110 nM, without reducing agent, 1 h
T1 sequence (P42229 1-794): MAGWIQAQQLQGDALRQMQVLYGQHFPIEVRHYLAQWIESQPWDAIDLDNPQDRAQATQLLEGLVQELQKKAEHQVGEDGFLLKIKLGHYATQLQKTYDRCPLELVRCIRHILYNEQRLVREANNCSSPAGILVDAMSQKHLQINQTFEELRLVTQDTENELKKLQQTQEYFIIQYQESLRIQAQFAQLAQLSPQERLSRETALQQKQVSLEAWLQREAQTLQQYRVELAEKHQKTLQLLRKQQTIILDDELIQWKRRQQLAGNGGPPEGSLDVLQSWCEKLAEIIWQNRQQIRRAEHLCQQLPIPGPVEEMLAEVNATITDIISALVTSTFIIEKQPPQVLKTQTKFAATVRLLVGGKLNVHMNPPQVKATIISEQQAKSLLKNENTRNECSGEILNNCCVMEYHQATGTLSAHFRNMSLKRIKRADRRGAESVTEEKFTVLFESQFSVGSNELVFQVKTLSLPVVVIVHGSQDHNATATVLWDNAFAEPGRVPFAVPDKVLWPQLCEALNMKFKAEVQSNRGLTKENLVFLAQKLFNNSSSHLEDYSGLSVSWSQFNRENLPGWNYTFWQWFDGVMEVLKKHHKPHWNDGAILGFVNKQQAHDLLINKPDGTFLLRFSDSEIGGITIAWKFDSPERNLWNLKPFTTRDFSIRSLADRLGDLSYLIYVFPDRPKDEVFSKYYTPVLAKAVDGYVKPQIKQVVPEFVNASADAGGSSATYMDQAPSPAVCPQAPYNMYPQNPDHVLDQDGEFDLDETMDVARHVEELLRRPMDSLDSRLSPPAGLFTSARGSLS
Excerpt: The azo dyes PPADS and iso‐PPADS have a deep red color in aqueous solution. […] In order to exclude this possibility, we established homogeneous time‐resolved fluorescence resonance energy transfer (HTRF) assays to confirm the degree of binding between STAT4, STAT5a, and STAT5b and the respective 5‐carboxyfluorescein‐labeled binding peptides used in the FP assay. In addition, an HTRF assay was established for STAT3, one of the STAT proteins targeted to a lesser extent in FP assays, as a specificity control (Figure 1B,C). The STAT protein constructs each contain a 6x‐His‐tag.^[ [15], [16], [17], [22] ^] A Tb^3+‐cryptate fused to an anti‐6x‐His antibody was chosen as the long‐lived fluorescent donor, while the carboxyfluorescein linked to the respective STAT‐binding peptides served as the acceptor (Figure 2A). Emission was measured with a time delay of 60 μs after excitation, allowing any initial compound fluorescence to decay beforehand. […]
Screening of chemical libraries comprising approximately 5000 known bioactive compounds in fluorescence polarization-based assays against phosphorylation-dependent protein-protein interaction domains, including STAT proteins, has been described.[1] […]
as §1
as §2, with “STAT3,[3] STAT4,[4] STAT5a,[5] STAT5b[6] and STAT6[1] were performed as previously described.” left out
CFGp[…]-OH. […] FP was measured using an Infinite F500 plate reader (Tecan) and measurements were converted into percent inhibition according to the binding curve equation. Curves were plotted and best fits calculated using OriginPro […]
Homogenous time-resolved fluorescence (HTRF) assays for STAT3, STAT4, STAT5a and STAT5b were carried out using Cisbio Monoclonal Antibody Anti-6His-Tb Gold as the fluorescence donor (Perkin Elmer) and the corresponding CF-labelled binding peptide as the acceptor. […] The average reading from 3 wells was obtained. […]

STAT3, sequence (P40763 whole entry, species assumed): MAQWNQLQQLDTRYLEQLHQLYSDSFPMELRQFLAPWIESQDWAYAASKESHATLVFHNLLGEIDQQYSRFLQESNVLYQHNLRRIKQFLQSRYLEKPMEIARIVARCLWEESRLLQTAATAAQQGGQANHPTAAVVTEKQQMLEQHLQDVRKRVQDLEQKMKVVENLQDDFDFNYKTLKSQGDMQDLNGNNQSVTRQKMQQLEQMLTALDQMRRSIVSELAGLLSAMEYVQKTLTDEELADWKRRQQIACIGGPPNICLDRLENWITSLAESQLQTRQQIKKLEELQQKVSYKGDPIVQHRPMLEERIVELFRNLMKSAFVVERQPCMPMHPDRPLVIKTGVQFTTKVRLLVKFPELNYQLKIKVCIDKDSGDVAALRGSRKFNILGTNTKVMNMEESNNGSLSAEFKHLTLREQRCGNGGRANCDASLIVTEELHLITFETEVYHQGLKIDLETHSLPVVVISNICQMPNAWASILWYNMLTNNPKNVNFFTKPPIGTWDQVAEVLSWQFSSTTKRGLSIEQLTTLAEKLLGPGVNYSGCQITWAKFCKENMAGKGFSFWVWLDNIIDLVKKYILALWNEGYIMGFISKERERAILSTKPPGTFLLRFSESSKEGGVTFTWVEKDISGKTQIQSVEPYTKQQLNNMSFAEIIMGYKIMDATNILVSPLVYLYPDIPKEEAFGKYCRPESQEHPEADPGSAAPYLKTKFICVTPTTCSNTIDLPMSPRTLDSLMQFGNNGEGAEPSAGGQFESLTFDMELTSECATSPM

Row | Compound | IC50 (STAT3) [µM] | IC50 (STAT5a) [µM]
1 | Cc1nc(/N=N/c2cc(S(=O)(=O)O)ccc2S(=O)(=O)O)c(COP(=O)(O)O)c(C=O)c1O [iso‐PPADS] | 54 ± 14 | 8.2 ± 0.7
2 | Cc1nc(/N=N/c2ccc(S(=O)(=O)O)cc2S(=O)(=O)O)c(COP(=O)(O)O)c(C=O)c1O [PPADS, pyridoxalphosphate‐6‐azophenyl‐2',4'‐disulfonic acid] | 22.6 ± 1.6 | 1.41 ± 0.35
